Data taken from US20230218716A1, “COMPOSITIONS AND METHODS FOR TREATING ATRIAL FIBRILLATION” (Ohio State Innovation Foudation, priority 2020, published 2023).
Structures can show the parent of a compound that is named as a salt.

Columns and labels:
[1] = cited from earlier work
[2] = system: Langendorff-perfused mouse hearts; settings: VEGF 500 pg/ml, perfused 60 minutes; vehicle 100±9%; n=3 hearts/group
Procedure: (§1) Langendorff preparations: For optical mapping and ex vivo electrocardiography (ECG) studies, hearts were perfused (at 40-55 mm Hg) in a Langendorff configuration with oxygenated, modified Tyrode's solution (containing, in mM: NaCl 140, KCl 5.4, MgCl2 0.5, dextrose 5.6, HEPES 10; pH adjusted to 7.4) at 37° C. as previously described (Veeraraghavan R, et al. Pflugers Arch. 2015 467:2093-2105; Veeraraghavan R, et al. Elife. 2018 7; Radwanski P B, et al. Cardiovascular research. 2015 106:143-52; Radwanski P B, et al. Heart rhythm. 2010 7:1428-35; Veeraraghavan R and Poelzing S. Cardiovascular research. 2008 77:749-56.

murine atria [3] = settings: VEGF-treated vs. control
Excerpt: (§2) Cryopreservation: Hearts were embedded in optimal cutting temperature compound and frozen using liquid nitrogen for cryosectioning and fluorescent immunolabeling as in previous studies (Veeraraghavan R, et al. Pflugers Arch. 2015 467:2093-2105; Veeraraghavan R, et al. Pflugers Arch. 2016 468:1651-61; Veeraraghavan R, et al. Elife. 2018 7; Veeraraghavan R and Gourdie R. Molecular biology of the cell. 2016 27:3583-3590). These samples were used for light microscopy experiments as described below.
(§3) Fluorescent Immunolabeling: Immuno-fluorescent labeling of cryosections (5 μm thickness) of fresh-frozen myocardium was performed, as previously described (Veeraraghavan R, et al. Pflugers Arch. 2015 467:2093-2105; Veeraraghavan R, et al. Elife. 2018 7; Koleske M, et al. The Journal of general physiology. 2018; Radwanski P B, et al. JACC: Basic to Translational Science. 2016 1:251-266). Briefly, cryosections were fixed with paraformaldehyde (2%, 5 minutes at room temperature), permeabilized with Triton X-100 (0.2% in PBS for 15 minutes at room temperature) and treated with blocking agent (1% BSA, 0.1% triton in PBS for 2 hours at room temperature) prior to labeling with primary antibodies (overnight at 4° C.). Samples were then washed in PBS (3×5 minutes in PBS at room temperature) prior to labeling with secondary antibodies.
For confocal microscopy, samples were then labeled with goat anti-mouse and goat anti-rabbit secondary antibodies conjugated to Alexa 405, Alexa 488, Alexa 568 and Alexa 647 were used (1:8000; ThermoFisher Scientific, Grand Island, N.Y.). Simultaneous labeling with two rabbit or mouse primary antibodies was accomplished by direct fluorophore conjugation of primary antibodies (Zenon labeling kits, ThermoFisher Scientific, Grand Island, N.Y.). Samples were then washed in PBS (3×5 minutes in PBS at room temperature) and mounted in ProLong Gold (Invitrogen, Rockford, Ill.). For STimulated Emission Depletion (STED) microscopy, samples were prepared similar to confocal microscopy but labeled with Alexa 594 and Atto 647N fluorophores. […]

mouse hearts = settings: VEGF high dose (500 pg/ml) vs. untreated controls
Excerpt: Primary Antibodies: The following primary antibodies were used for Western immunoblotting and fluorescence microscopy studies: connexin43 (Cx43; rabbit polyclonal; Sigma C6219); connexin40 (Cx40; rabbit polyclonal; ThermoFisher Scientific 36-4900); N-cadherin (N-cad; mouse monoclonal; BD Biosciences 610920); cardiac isoform of the voltage-gated sodium channel (Nav1.5; rabbit polyclonal; custom antibody (Veeraraghavan R, et al. Elife. 2018 7)); and the sodium channel β subunit (β1; rabbit polyclonal; custom antibody (Veeraraghavan R, et al. Elife. 2018 7))
Western Immunoblotting: Whole cell lysates of mouse hearts frozen using liquid nitrogen were prepared as previously described (Veeraraghavan R, et al. Elife. 2018 7; Koleske M, et al. The Journal of general physiology. 2018; Struckman H L, et al. Microsc Microanal. 2020:1-9). These were electrophoresed on 4-15% TGX Stain-free gels (BioRad, Hercules, Calif.) before being transferred onto a nitrocellulose membrane. The membranes were probed with primary antibodies against Cx43, Cx40, Nav1.5 and […] as well as mouse monoclonal antibody against GAPDH (loading control; Fitzgerald Industries, Acton, Mass.), followed by goat anti-rabbit and goat anti-mouse HRP-conjugated secondary antibodies (Promega, Madison, Wis.). Signals were detected by chemiluminescence using SuperSignal West Femto Extended Duration Substrate (ThermoFisher Scientific, Grand Island, N.Y.) and imaged using a Chemidoc MP imager (BioRad, Hercules, Calif.).

mice = settings: intraperitoneal VEGF 10 or 50 ng/kg; epinephrine 1.5 mg/kg and caffeine 120 mg/kg
Procedure: In vivo ECG: Continuous ECG recordings (PL3504 PowerLab 4/35, ADInstruments) were obtained from mice anesthetized with isoflurane (1-1.5%) as previously described (Koleske M, et al. The Journal of general physiology. 2018). Briefly, after baseline recording (5 min.), animals received either intraperitoneal VEGF (10 or 50 ng/kg; Sigma) or vehicle (PBS). After an additional 20 min, animals were injected intraperitoneally with epinephrine (1.5 mg/kg; Sigma) and caffeine (120 mg/kg; Sigma) challenge and ECG recording continued for 40 minutes. ECG recordings were analyzed using the LabChart 8 software (ADInstruments).

murine atria [4] = system: murine atria
Excerpt: as §2, §3
For confocal microscopy, samples were then labeled with goat anti-mouse and goat anti-rabbit secondary antibodies conjugated to Alexa 405, Alexa 488, Alexa 568 and Alexa 647 were used (1:8000; ThermoFisher Scientific, Grand Island, N.Y.). Simultaneous labeling with two rabbit or mouse primary antibodies was accomplished by direct fluorophore conjugation of primary antibodies (Zenon labeling kits, ThermoFisher Scientific, Grand Island, N.Y.). Samples were then washed in PBS (3×5 minutes in PBS at room temperature) and mounted in ProLong Gold (Invitrogen, Rockford, Ill.). For STimulated Emission Depletion (STED) microscopy, samples were prepared similar to confocal microscopy but labeled with Alexa 594 and Atto 647N fluorophores. For STochastic Optical Reconstruction Microscopy (STORM), samples were labeled with Alexa 647 and Biotium CF 568 fluorophores. STORM samples were then washed in PBS (3×5 minutes in PBS at room temperature) and optically cleared using Scale U2 buffer (48 hours at 4° C.) prior to imaging (Veeraraghavan R, et al. Pflugers Arch. 2016 468:1651-61; Veeraraghavan R, et al. Elife. 2018 7; Veeraraghavan R and Gourdie R. Molecular biology of the cell. 2016 27:3583-3590).
Single Molecule Localization: STORM imaging was performed using a Vutara 352 microscope (Bruker Nano Surfaces, Middleton, Wis.) equipped with biplane 3D detection, and fast sCMOS imaging achieving 20 nm lateral and 50 nm axial resolution, as previously described (Veeraraghavan R, et al. Elife. 2018 7; Veeraraghavan R and Gourdie R. Molecular biology of the cell. 2016 27:3583-3590; Struckman H L, et al. Microsc Microanal. 2020:1-9; Bonilla I M, et al. Sci Rep. 2019 9:10179). Individual fluorophore molecules were localized with a precision of 10 nm. The two-color channels were precisely registered using localized positions of several TetraSpeck Fluorescent Microspheres (ThermoFisher Scientific, Carlsbad, Calif.) scattered throughout the field of view, with the procedure being repeated at the start of each imaging session. Protein clustering and spatial organization were quantitatively assessed from single molecule localization data using STORM-RLA, a machine learning-based cluster analysis approach, as previously described (Veeraraghavan R and Gourdie R. Molecular biology of the cell. 2016 27:3583-3590).

murine atria [5] = system: murine atria; remark: listed apart in the source
Procedure: Fixation for Transmission Electron Microscopy (TEM): Atria were dissected and fixed overnight in 2% glutaraldehyde at 4° C. for resin embedding and ultramicrotomy as previously described (Veeraraghavan R, et al. Pflugers Arch. 2015 467:2093-2105; Veeraraghavan R, et al. Elife. 2018 7).
Transmission Electron Microscopy (TEM): TEM images of the ID, particularly gap junctions (GJs) and mechanical junctions (MJs), were obtained at 60,000× magnification on a FEI Tecnai G2 Spirit electron microscope. Intermembrane distance at various ID sites was quantified using ImageJ (NIH), as previously described (Veeraraghavan R, et al. Pflugers Arch. 2015 467:2093-2105; Veeraraghavan R, et al. Elife. 2018 7).

[6] = system: Langendorff-perfused mouse hearts
Procedure: as §1
Optical Mapping and Volume-conducted Electrocardiography (ECG): Optical voltage mapping was performed using the voltage sensitive dye, di-4-ANEPPS (15 μM; ThermoFisher Scientific, Grand Island, N.Y.), as previously described (Veeraraghavan R, et al. Pflugers Arch. 2015 467:2093-2105; Veeraraghavan R, et al. Pflugers Arch. 2016 468:1651-61; Veeraraghavan R and Poelzing S. Cardiovascular research. 2008 77:749-56), in order to quantify conduction velocity. Motion was suppressed by adding blebbistatin (10 μM) to the perfusate. Preparations were excited by 510 nm light and fluorescent signals passed through a 610 nm longpass filter (Newport, Irvine, Calif.) and recorded at 1000 frames/sec using a MiCAM Ultima-L CMOS camera (SciMedia, Costa Mesa, Calif.). Activation time was defined as the time of the maximum first derivative of the AP (Girouard S D, et al. J Cardiovasc Electrophysiol. 1996 7:1024-38), and activation times were fitted to a parabolic surface (Bayly P V, et al. IEEE Trans Biomed Eng. 1998 45:563-71). Gradient vectors evaluated along this surface were averaged along the fast axis of propagation (±15°) to quantify CV.

[7] = both low (100 pg/ml) and high (500 pg/ml) doses vs. untreated controls

O[C@H](c1cc(C(F)(F)F)nc2c(C(F)(F)F)cccc12)[C@@H]1CCCCN1 (relative stereo) [Mefloquine hydrochloride, (R*,S*)-(±)-alpha-2-piperidinyl-2,8-bis(trifluoromethyl)-4-quinolinemethanol]
Solubility in ethanol ([1]; ethanol): soluble
Solubility in water ([1]; water): slightly soluble

VEGF
Levels of FITC-dextran extravasated relative to vehicle controls [2]: 201±7%
Nav1.5 enrichment ratio near Cx43 (STED) (murine atria [3]; <100 nm from Cx43): significantly decreased
β1 enrichment ratio near Cx43 (STED) (murine atria [3]; <100 nm from Cx43): significantly decreased
Nav1.5 enrichment ratio at N-cad-rich sites (STED) (murine atria [3]): trended towards a decrease
Expression level of Cx43 (mouse hearts): no significant difference
Expression level of N-cad (mouse hearts): no significant difference
Expression level of Nav1.5 (mouse hearts): no significant difference
Expression level of β1 (mouse hearts): no significant difference
Expression of Cx40 (mouse hearts): slightly elevated
Atrial arrhythmias in vivo after caffeine and epinephrine challenge (mice): elicited atrial arrhythmias in VEGF-treated mice but not in untreated controls
β1 density at N-cad-rich plicate ID sites (murine atria [4]; VEGF treated hearts vs. control): without significant changes
Nav1.5 enrichment ratio at N-cad-rich plicate ID sites (murine atria [4]; VEGF treated hearts, control 6.5±0.4): 4.6±0.4
Nav1.5 enrichment ratio at Cx43-adjacent perinexal sites (murine atria [4]; VEGF treated hearts, control 10.5±0.3): 6.9±0.8
β1 enrichment ratio at Cx43-adjacent perinexal sites (murine atria [4]; VEGF treated hearts, control 10.7±1.9): 5.4±0.7
% of ID-localized Nav1.5 signal at N-cad-rich plicate ID sites (murine atria [4]; VEGF treated hearts, control 35±2%): 26±3%
% of ID-localized Nav1.5 signal at Cx43-adjacent perinexal sites (murine atria [4]; VEGF treated hearts, control 59±2%): 32±3%
% of ID-localized β1 signal at Cx43-adjacent perinexal sites (murine atria [4]; VEGF treated hearts, control 69±4%): 49±3%
Intermembrane distance at GJ-adjacent sites (murine atria [5]; [7]): significantly increased
Intermembrane distance at MJ-adjacent sites (murine atria [5]; [7]): significantly increased
Dose dependence of ID swelling (murine atria [5]; low vs. high dose of VEGF): dose-dependent fashion at GJ-adjacent perinexi but not near MJ
P wave duration ([6]; 30 minutes of VEGF perfusion (100 and 500 pg/ml) vs. untreated control): significant P-wave prolongation
Incidence of burst pacing-induced atrial arrhythmias ([6]; VEGF 100 and 500 pg/ml, 30 minutes, 10 s burst pacing at 50, 40, 30 ms): increased the incidence of burst pacing-induced atrial arrhythmias in dose-dependent fashion
Atrial conduction velocity ([6]; VEGF 100 and 500 pg/ml, 30 minutes, paced at cycle length 100 ms): significantly and dose-dependently decreased
